Reference: the NIST ThermoML archive (doi:10.1021/je900665a)

Details: Capillary rise

CCCCCCC [heptane]
Details	surface tension liquid-gas [mN/m]
298.13 K	20
303.18 K	19.58
308.12 K	18.97
313.18 K	18.41
318.17 K	17.97
323.2 K	17.48
328.15 K	16.92

CCOCC [diethyl ether]
Details	surface tension liquid-gas [mN/m]
258.17 K	21.49
263.17 K	20.76
268.18 K	20.13
273.18 K	19.62
278.18 K	18.97
283.18 K	18.46
288.18 K	17.82
293.16 K	17.15
298.1 K	16.58
303.17 K	16
308.11 K	15.44
313.19 K	14.87
318.16 K	14.14
323.16 K	13.61
328.12 K	12.96
333.18 K	12.46
338.17 K	11.92
343.17 K	11.28
348.17 K	10.75
353.19 K	10.19
358.18 K	9.575
363.16 K	9.014
368.18 K	8.459
373.17 K	7.914

CC(C)OC(C)C [diisopropyl ether]
Details	surface tension liquid-gas [mN/m]
248.07 K	22.7
253.23 K	22.06
258.1 K	21.55
263.18 K	21.02
268.33 K	20.52
273.46 K	19.93
278.5 K	19.26
283.18 K	18.81
288.18 K	18.3
293.16 K	17.82
298.1 K	17.26
303.17 K	16.76
308.08 K	16.18
313.27 K	15.66
318.17 K	15.09
323.19 K	14.58
328.12 K	14.1
333.12 K	13.68
338.11 K	13.15
343.1 K	12.57
348.1 K	12.11
353.1 K	11.57
358.15 K	11.01
363.17 K	10.56
368.17 K	10.04
373.17 K	9.698
